Structures can show the parent of a compound that is named as a salt.
Molecular target: T1, 5-HT4 receptor (Cavia porcellus, UniProt O70528)
T1 construct: striatum was isolated which was cryopreserved at −80° C. until use; from tissue; host or cells: guinea pig (Slc-Hartley) striatum membranes
Test: Test Example 3: Guinea pig 5-HT4 receptor binding assay, [3H]-GR113808, striatum membranes (Table 98)
Details: Guinea pig 5-HT4 receptor binding assay, [3H]-GR113808, striatum membranes; mean value of each group; read-out: IC50
Protocol: The guinea pig 5-HT4 receptor binding assay and preparations of receptor membrane preparations herein were carried out according to a method of Grossman et al. [see, British J. Pharmacol., (1993) 109, 618].
Slc-Hartley guinea pigs (body weight 300 g to 400 g) were decapitated to remove brain rapidly, and striatum was isolated which was cryopreserved at −80° C. until use. To the obtained tissues were added fifteen fold of Hepes buffer (50 mM, pH 7.4, 4° C.), and the mixture was homogenized by Teflon (trademark) homogenizer and centrifuged at 48,000×g (4° C.) for 15 minutes. To the resulting precipitate was added Hepes buffer (1 ml) to 30 mg by wet weight of tissues, and the mixture was suspended to give receptor membrane preparations.
To an assay tube were added 0.1 nM [^3H]-GR113808 {chemical name: [1-[2-(methylsulfonylamino) ethyl]-4-piperidinyl]methyl 1-methylindole-3-carboxylate}, receptor membrane preparations, and Hepes buffer (50 mM, pH 7.4, 4° C., 1 ml) containing test compounds or 30 μM serotonin; and the mixture was incubated at 37° C. for 30 minutes. On quenching the reaction, the mixture was rapidly filtered on whatman GF/B filter, which was presoaked in 0.1% polyethyleneimine for 1 hour, by using Brandel cell Harvester, and washed with ice-cooled 50 mM Tris-HCl (pH 7.7, 4 ml) three times. To the filter after filtration was added a liquid scintillator (Ecoscint), and then a radioactivity was determined by a liquid scintillation counter.
50% Inhibition concentrations (IC50) were determined from inhibition rates of test compounds to specific bindings which were obtained by subtracting nonspecific bindings from total binding amounts of [^3H]-GR113808. […]

T1 sequence (O70528 whole entry): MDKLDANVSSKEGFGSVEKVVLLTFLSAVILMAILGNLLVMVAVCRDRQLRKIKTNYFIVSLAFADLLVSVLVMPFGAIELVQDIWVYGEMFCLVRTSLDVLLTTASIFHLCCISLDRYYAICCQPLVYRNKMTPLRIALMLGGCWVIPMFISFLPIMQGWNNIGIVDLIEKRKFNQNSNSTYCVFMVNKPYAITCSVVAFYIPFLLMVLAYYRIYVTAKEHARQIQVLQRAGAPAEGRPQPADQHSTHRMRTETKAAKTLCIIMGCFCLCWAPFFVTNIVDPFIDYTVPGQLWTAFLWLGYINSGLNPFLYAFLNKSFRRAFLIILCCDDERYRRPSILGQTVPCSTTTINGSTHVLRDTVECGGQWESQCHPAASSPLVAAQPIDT

Compound	IC50
5-methyl-3-(propan-2-yl)-1-{5-[1-(tetrahydro-2H-pyran-4-yl)piperidin-5-yl]-1,2,4-oxadiazol-3-yl}-1H-indazole [Example 428]	248 nM
CC(C)c1nn(-c2noc(C3CCN(CCCOc4ccccc4)CC3)n2)c2c(F)cccc12 [Example 395, 7-fluoro-1-{5-[1-(3-phenoxypropyl)piperidin-4-yl]-1,2,4-oxadiazol-3-yl}-3-(propan-2-yl)-1H-indazole]	26.9 nM
CC(C)c1nn(-c2noc(C3CCN(CCC(=O)c4ccccc4)CC3)n2)c2c(F)cccc12 [Example 396, 3-(4-{3-[7-fluoro-3-(propan-2-yl)-1H-indazol-1-yl]-1,2,4-oxadiazol-5-yl}piperidin-1-yl)-1-phenylpropan-1-one]	< 20 nM
COC(=O)CCCN1CCC(c2nc(-n3nc(C(C)C)c4cccc(F)c43)no2)CC1 [Example 397, methyl 4-(4-{3-[7-fluoro-3-(propan-2-yl)-1H-indazol-1-yl]-1,2,4-oxadiazol-5-yl}piperidin-1-yl)butanoate]	< 20 nM
CC(C)c1nn(-c2noc(C3CCN(CCC(=O)Nc4ccccc4)CC3)n2)c2c(F)cccc12 [Example 398, 3-(4-{3-[7-fluoro-3-(propan-2-yl)-1H-indazol-1-yl]-1,2,4-oxadiazol-5-yl}piperidin-1-yl)-N-phenylpropanamide]	< 20 nM
CC(=O)N1CCC(N2CCC(c3nc(-n4nc(C(C)(C)O)c5cccc(F)c54)no3)CC2)CC1 [Example 403, 1-(4-{3-[7-fluoro-3-(2-hydroxypropan-2-yl)-1H-indazol-1-yl]-1,2,4-oxadiazol-5-yl}-1,4′-bipiperidin-1′-yl)ethanone]	36.1 nM
COc1ccc2c(C(C)C)nn(-c3noc(C4CCN(C5CCN(C(C)=O)CC5)CC4)n3)c2c1F [Example 404, 1-(4-{3-[7-fluoro-6-methoxy-3-(propan-2-yl)-1H-indazol-1-yl]-1,2,4-oxadiazol-5-yl}-1,4′-bipiperidin-1′-yl)ethanone]	100 nM
CC(=O)N1CCC(N2CCC(c3nc(-n4nc(C(F)(F)F)c5cccc(F)c54)no3)CC2)CC1 [Example 406, 1-(4-{3-[7-fluoro-3-(trifluoromethyl)-1H-indazol-1-yl]-1,2,4-oxadiazol-5-yl}-1,4′-bipiperidin-1′-yl)ethanone]	68.7 nM
CC(=O)N1CCC(N2CCC(c3nc(-n4nc(C(C)C)c5c(Cl)cccc54)no3)CC2)CC1 [Example 407, 1-(4-{3-[4-chloro-3-(propan-2-yl)-1H-indazol-1-yl]-1,2,4-oxadiazol-5-yl}-1,4′-bipiperidin-1′-yl)ethanone]	101 nM
CC(=O)N1CCC(N2CCC(c3nc(-n4nc(C(C)C)c5c(C)cccc54)no3)CC2)CC1 [Example 408, 1-(4-{3-[4-methyl-3-(propan-2-yl)-1H-indazol-1-yl]-1,2,4-oxadiazol-5-yl}-1,4′-bipiperidin-1′-yl)ethanone]	29.5 nM
CC(=O)N1CCC(N2CCC(c3nc(-n4nc(C(C)C)c5cc(Cl)ccc54)no3)CC2)CC1 [Example 409, 1-(4-{3-[5-chloro-3-(propan-2-yl)-1H-indazol-1-yl]-1,2,4-oxadiazol-5-yl}-1,4′-bipiperidin-1′-yl)ethanone]	383 nM
CC(=O)N1CCC(N2CCC(c3nc(-n4nc(C(C)C)c5cc(C)ccc54)no3)CC2)CC1 [Example 410, 1-(4-{3-[5-methyl-3-(propan-2-yl)-1H-indazol-1-yl]-1,2,4-oxadiazol-5-yl}-1,4′-bipiperidin-1′-yl)ethanone]	323 nM
CC(=O)N1CCC(N2CCC(c3nc(-n4nc(C(C)C)c5ccc(Cl)cc54)no3)CC2)CC1 [Example 412, 1-(4-{3-[6-chloro-3-(propan-2-yl)-1H-indazol-1-yl]-1,2,4-oxadiazol-5-yl}-1,4′-bipiperidin-1′-yl)ethanone]	140 nM
CC(=O)N1CCC(N2CCC(c3nc(-n4nc(C(C)C)c5cccc(C)c54)no3)CC2)CC1 [Example 413, 1-(4-{3-[7-methyl-3-(propan-2-yl)-1H-indazol-1-yl]-1,2,4-oxadiazol-5-yl}-1,4′-bipiperidin-1′-yl)ethanone]	< 20 nM
COc1cccc2c(C(C)C)nn(-c3noc(C4CCN(C5CCN(C(C)=O)CC5)CC4)n3)c12 [Example 414, 1-(4-{3-[7-methoxy-3-(propan-2-yl)-1H-indazol-1-yl]-1,2,4-oxadiazol-5-yl}-1,4′-bipiperidin-1′-yl)ethanone]	86.9 nM
CC(=O)N1CCC(N2CCC(c3nc(-n4nc(C(C)C)c5cccc(F)c54)no3)C2)CC1 (stereo not shown) [Example 415, 1-[4-(3-{3-[7-fluoro-3-(propan-2-yl)-1H-indazol-1-yl]-1,2,4-oxadiazol-5-yl}pyrrolidin-1-yl)piperidin-1-yl]ethanone]	< 20 nM
CC(=O)N1CCC(N2CCC(Cc3nc(-n4nc(C(C)C)c5cccc(F)c54)no3)CC2)CC1 [Example 417, 1-[4-({3-[7-fluoro-3-(propan-2-yl)-1H-indazol-1-yl]-1,2,4-oxadiazol-5-yl}methyl)-1,4′-bipiperidin-1′-yl]ethanone]	36 nM
CC(C)c1nn(-c2noc(C3CCN(C4CCC4)CC3)n2)c2cccc(Cl)c12 [Example 421, 4-chloro-1-[5-(1-cyclobutylpiperidin-4-yl)-1,2,4-oxadiazol-3-yl]-3-(propan-2-yl)-1H-indazole]	129 nM
CC(C)c1nn(-c2noc(C3CCN(C4CCOCC4)CC3)n2)c2cccc(Cl)c12 [Example 422, 4-chloro-3-(propan-2-yl)-1-{5-[1-(tetrahydro-2H-pyran-4-yl)piperidin-4-yl]-1,2,4-oxadiazol-3-yl}-1H-indazole]	55 nM
Cc1ccc2c(c1)c(C(C)C)nn2-c1noc(C2CCN(C3CCC3)CC2)n1 [Example 427, 1-[5-(1-cyclobutylpiperidin-4-yl)-1,2,4-oxadiazol-3-yl]-5-methyl-3-(propan-2-yl}-1H-indazole]	339 nM
CC(C)c1nn(-c2noc(C3CCN(C4CCC4)CC3)n2)c2cc(Cl)ccc12 [Example 431, 6-chloro-1-[5-(1-cyclobutylpiperidin-4-yl)-1,2,4-oxadiazol-3-yl]-3-(propan-2-yl)-1H-indazole]	130 nM
Cc1ccc2c(C(C)C)nn(-c3noc(C4CCN(C5CCC5)CC4)n3)c2c1 [Example 433, 1-[5-(1-cyclobutylpiperidin-4-yl)-1,2,4-oxadiazol-3-yl]-6-methyl-3-(propan-2-yl)-1H-indazole]	65 nM
CCc1nn(-c2noc(C3CCN(C4CCC4)CC3)n2)c2cc(C)ccc12 [Example 434, 1-[5-(1-cyclobutylpiperidin-4-yl)-1,2,4-oxadiazol-3-yl]-3-ethyl-6-methyl-1H-indazole trifluoroacetate]	20.8 nM
Cc1ccc2c(C(C)C)nn(-c3noc(C4CCN(CC5CCOCC5)CC4)n3)c2c1 [Example 436, 6-methyl-3-(propan-2-yl)-1-{5-[1-(tetrahydro-2H-pyran-4-ylmethyl)piperidin-4-yl]-1,2,4-oxadiazol-3-yl}-1H-indazole trifluoroacetate]	179 nM
CCc1nn(-c2noc(C3CCN(C4CCOCC4)CC3)n2)c2cc(C)ccc12 [Example 437, 3-ethyl-6-methyl-1-{5-[1-(tetrahydro-2H-pyran-4-yl)piperidin-4-yl)-1,2,4-oxadiazol-3-yl}-1H-indazole trifluoroacetate]	113 nM

From US20140057895A1, “INDAZOLE- AND PYRROLOPYRIDINE-DERIVATIVE AND PHARMACEUTICAL USE THEREOF” (priority 2011, published 2014)
